Data from paper PMC8241160, “Enhanced oral bioavailability and anticancer efficacy of fisetin by encapsulating as inclusion complex with HPβCD in polymeric nanoparticles” (Drug Delivery, 2017).
≈ marks a conversion by molar mass, not a printed value.

Tests used:
[1] = system: MCF-7 human breast adenocarcinoma cells; test: Cell viability assay (MTT assay); format: cell-based; conditions: MCF7, MCF-7, 24 h of treatment
Procedure: The cell viability assay (MTT assay) was performed in MCF-7 human breast adenocarcinoma cells. Cells were seeded at a density of 7 × 10^3 in DMEM medium supplemented with 10% FBS in a 96-well plate and incubated for 24 h at 37 °C in a humidified 5% CO2. The cells were exposed to different concentrations of FST, FHIC and FHIC-PNP for 24 h in order to ascertain the concentration at which 50% of the cells are viable. A volume of 10 μl of MTT solution (5 mg/ml in PBS) was added to each well. The plate was incubated for 4 h and thereafter the contents in the wells were replaced with 100 μl DMSO and again incubated for 10 min. The optical density was measured using a microplate reader (BioTek Instruments, Synergy 4, Winooski, VT) at 570 nm. The cytotoxicity of blank PNP was also studied to determine the toxicity of the nanocarrier system.

[2] = parameters: method as in Bothiraja et al., 2014; conditions: ref Bothiraja et al., 2014; cited from earlier work
[3] = Encapsulation efficiency (indirect method); format: physicochemical; conditions: FST encapsulated in PLGA nanoparticles
Procedure: The amount of drug loaded in the nanoparticles was determined by indirect method. Nanoparticle dispersion was centrifuged using Centrisart tubes (Sartorius, Bohemia, NY) and supernatant was analyzed for FST content using UV-visible spectrophotometry at 360 nm. The EE was calculated as follows: EE (%) = {(DT – DS)/DT} × 100, where DT=total FST added; DS=FST in the supernatant.

[4] = In vitro drug release (dialysis bag method); format: physicochemical; conditions: 8 h, PBS pH 7.4 with 0.1% v/v Tween 80, 37 °C
Procedure: Dialysis bag method was used to carry out the in vitro drug release studies. FST or FHIC-PNP dispersion equivalent to 1 mg of FST, was introduced into the dialysis bag (12 000–14 000 molecular weight cut off, Sigma Aldrich, St. Louis, MO) and placed in 100 ml of phosphate buffer saline pH 7.4 (PBS) containing 0.1%v/v Tween 80 as the release media and kept for stirring at 37 °C at 100 rpm. Samples were withdrawn at different time intervals and replaced with equal volume of media to maintain the sink condition. The collected samples were analyzed for amount of FST content by UV-visible spectrophotometry at 360 nm.

[5] = Apparent solubility of FST and FHIC in aqueous phase; format: physicochemical; conditions: PBS
Procedure: For the determination of apparent solubility, native FST and FHIC were added into 10 ml of PBS and stirred in an orbital shaker for 24 h (Madan et al., [2012]). The solutions were centrifuged (10 000 rpm for 15 min), supernatant was collected and filtered through 0.22 μm filter. After appropriate dilution, FST absorbance was measured using UV-visible spectroscopy at 360 nm. The calibration curve was prepared in the range of 1–20 μg/ml. The observed regression equation was Y = 0.054X + 0.058 with r^2=0.997.

[6] = system: MCF-7 cells; test: Quantitative apoptosis by flow cytometer (Annexin V-FITC/PI); format: cell-based, human; conditions: MCF-7, equivalent to 20 μg/ml FST, 24 h
Procedure: For the quantitative analysis of apoptosis, cells were treated with FST, FHIC or FHIC-PNP (equivalent to 20 μg/ml FST) for 24 h. Cells were trypsinized, centrifuged at 1200 rpm for 5 min, washed three times with ice-cold PBS and were re-suspended in 500 μl of binding buffer. Thereafter, 5 μl of Annexin V-FITC and 10 μl of PI were added and mixed for 15 min in the dark. The stained cells were analyzed using a flow cytometer (FACS Calibur, BD, San Jose, CA). Data analysis was performed using Cell-Quest software (Becton Dickinson, Franklin Lakes, NJ).

[7] = Pharmacokinetic study after oral administration; format: in vivo; conditions: 10 mg/kg FST equivalent, C57BL6 mice, plasma
Procedure: The animal experiments were performed in accordance with the Committee for the Purpose of Control and Supervision of Experiments on Animals (CPCSEA) guidelines after approval from Institutional Animal Ethics Committee (IAEC) of the institution (Approval no. IICT/39/2016). Female C57BL6 mice weighing from 18 to 22 g were kept for overnight fasting before the start of the experiment and allowed free access of water ad libitum.
C57BL6 mice were divided into two groups containing 27 animals in each. Animals in group I received pure FST (as 1% gum acacia suspension) orally at a dose of 10 mg/kg body weight and the animals in group II received FHIC-PNP (FST equivalent to 10 mg/kg) orally. At predetermined time intervals, blood samples were collected from retro-orbital plexus into centrifuge tube containing EDTA. Samples were centrifuged at 4000 rpm for 15 min and supernatant (plasma) was collected and stored at −80 °C for further analysis by LC/MS.
Plasma samples were extracted by solvent mixture composed of chloroform and acetonitrile (1:1). The mixture was kept in shaker for 10 min and the supernatant layer was transferred into another Eppendorf tubes. Evaporation of organic solvent was done on ScanVac speed vacuum concentrator and 100 μl of acetonitrile was added and vortexed. A volume of 2 μl aliquots of sample solution were injected into LC–MS/MS for analysis. The linearity of the method was evaluated by analyzing spiked calibration samples using six calibration standards over a calibration range of 0.5–800 ng/ml in mice plasma.
Analysis was carried out on U-HPLC instrument (Agilent Technologies, Santa Clara, CA) equipped with a quaternary pump, a degasser, a diode array detector, an auto sampler and a column compartment. Mass spectrometric analysis was carried out on an Agilent 6420 triple quadrupole (Agilent Technologies, Santa Clara, CA) equipped with electrospray ionization (ESI) source. The data acquisition was under the control of Mass Hunter software.
FST and baicalein, an internal standard (IS), were separated on Agilent Eclipse plus C18 (2.1 mm × 50 mm, 1.8 μm) at constant temperature of 40 °C. The initial mobile phase consisted of 10 mM of ammonium formate (pH 3.5) and acetonitrile with gradient elution at a flow rate of 0.4 ml/min. Elution was in a gradient, the acetonitrile was kept constant at 2% in 0.5 min, and then increased to 98% in 1.5 min and maintained at 98% for another 2 min, then decreased to 2% in 3.8 min and maintained for 2.2 min. The total run time of the analysis was 5 min. After each injection, the sample manager was cleaned by a needle wash process with methanol–water (70/30 v/v). The typical operating source condition for MS scan in negative ion ESI mode were optimized as follow: collision energy 33 eV, cell accelerator voltage 7 eV, fragmentor 135, dwell time 200 ms, gas temperature 280 °C, gas flow 10 l/min and nebulizer 50 psi. The MRM modes of ions with m/z 284.8 → 134.8 for FST and m/z 268.8 → 166.8 for IS (baicalein) were utilized for quantitative analysis.

[8] = parameters: method as in Seguin et al., 2013; conditions: ref Seguin et al., 2013; cited from earlier work

O=c1c(O)c(-c2ccc(O)c(O)c2)oc2cc(O)ccc12 [FST, 2-(3,4-dihydroxyphenyl)-3,7-dihydroxychromen-4-one]
IC50 [1]: 77.8 ± 2.12 µg/mL | aqueous solubility [2]: 10.45 µg/mL (≈ 36.5 µM) | encapsulation/entrapment efficiency (EE) ([3]; listed as native FST): 47% | encapsulation/entrapment efficiency (EE) ([3]; listed as pure FST): 47.3% | FST released in vitro [4]: about 93% | solubility at 24 h [5]: 5.25 µg/mL (≈ 18.3 µM) | apoptosis induction [6]: 21.8% | Cl [7]: 2022.59 ± 0.02 mL/h | AUC(0-inf) ([7]; female, mouse): 100 ± 2.91 ng·h/mL | AUC(0-t) ([7]; female, mouse): 80.4 ± 3.61 ng·h/mL | Cmax ([7]; female, mouse): 69.3 ± 4.16 ng/mL | MRT ([7]; female, mouse): 3.82 ± 2.15 h | Tmax ([7]; female, mouse): 0.25 ± 1.2 h | half-life ([7]; female, mouse): 3.26 ± 0.9 h | oral bioavailability [8]: 44.1%
